Assay [1] is described as follows: Antidepressant-like activity in mouse assessed as immobility time at 5 mg/kg, ip by tail suspension test (reference value: 154.2 +/- 10.2 sec). In kind it is functional, organism-based.
The nature of assay [2]: Antidepressant-like activity in mouse assessed as immobility time at 10 mg/kg, ip by tail suspension test (reference value: 154.2 +/- 10.2 sec). In kind it is functional, organism-based.
The species entered for a further assay is Rattus norvegicus. Put plainly: Selectivity ratio of Ki for rat brain cerebral cortex alpha2 adrenergic receptor to Ki for rat brain cerebral cortex alpha1 adrenergic receptor.
For assay [3], the target named is T1, Adrenergic receptor alpha-1 (Rattus norvegicus, UniProt P15823+P23944+P43140).
T1 sequence (P15823 whole entry): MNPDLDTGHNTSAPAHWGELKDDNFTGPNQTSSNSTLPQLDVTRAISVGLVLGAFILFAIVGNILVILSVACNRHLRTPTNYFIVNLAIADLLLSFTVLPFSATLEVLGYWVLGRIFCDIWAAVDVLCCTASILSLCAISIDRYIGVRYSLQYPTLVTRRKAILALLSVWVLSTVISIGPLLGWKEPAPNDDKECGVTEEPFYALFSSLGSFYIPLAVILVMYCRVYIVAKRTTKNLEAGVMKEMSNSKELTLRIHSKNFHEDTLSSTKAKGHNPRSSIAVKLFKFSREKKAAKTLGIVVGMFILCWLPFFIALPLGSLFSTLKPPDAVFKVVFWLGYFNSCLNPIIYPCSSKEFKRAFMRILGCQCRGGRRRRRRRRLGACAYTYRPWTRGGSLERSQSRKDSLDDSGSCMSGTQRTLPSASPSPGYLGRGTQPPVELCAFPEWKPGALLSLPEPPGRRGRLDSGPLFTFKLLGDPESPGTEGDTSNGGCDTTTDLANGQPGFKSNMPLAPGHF
T1 sequence (P23944 whole entry): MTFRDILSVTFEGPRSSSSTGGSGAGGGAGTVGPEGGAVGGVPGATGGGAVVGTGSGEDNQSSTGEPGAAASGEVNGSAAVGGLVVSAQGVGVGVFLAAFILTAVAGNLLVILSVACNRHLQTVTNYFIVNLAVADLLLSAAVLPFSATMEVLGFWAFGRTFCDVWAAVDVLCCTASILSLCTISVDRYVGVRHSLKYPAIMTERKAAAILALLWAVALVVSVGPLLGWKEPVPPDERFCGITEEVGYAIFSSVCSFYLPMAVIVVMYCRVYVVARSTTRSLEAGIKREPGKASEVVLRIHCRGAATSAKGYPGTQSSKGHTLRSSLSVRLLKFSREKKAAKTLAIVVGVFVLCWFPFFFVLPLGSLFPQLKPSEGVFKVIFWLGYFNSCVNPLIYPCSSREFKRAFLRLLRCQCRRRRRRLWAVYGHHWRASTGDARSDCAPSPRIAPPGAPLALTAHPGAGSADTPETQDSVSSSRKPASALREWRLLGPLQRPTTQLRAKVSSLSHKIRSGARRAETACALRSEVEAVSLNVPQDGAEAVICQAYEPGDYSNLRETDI
T1 sequence (P43140 whole entry): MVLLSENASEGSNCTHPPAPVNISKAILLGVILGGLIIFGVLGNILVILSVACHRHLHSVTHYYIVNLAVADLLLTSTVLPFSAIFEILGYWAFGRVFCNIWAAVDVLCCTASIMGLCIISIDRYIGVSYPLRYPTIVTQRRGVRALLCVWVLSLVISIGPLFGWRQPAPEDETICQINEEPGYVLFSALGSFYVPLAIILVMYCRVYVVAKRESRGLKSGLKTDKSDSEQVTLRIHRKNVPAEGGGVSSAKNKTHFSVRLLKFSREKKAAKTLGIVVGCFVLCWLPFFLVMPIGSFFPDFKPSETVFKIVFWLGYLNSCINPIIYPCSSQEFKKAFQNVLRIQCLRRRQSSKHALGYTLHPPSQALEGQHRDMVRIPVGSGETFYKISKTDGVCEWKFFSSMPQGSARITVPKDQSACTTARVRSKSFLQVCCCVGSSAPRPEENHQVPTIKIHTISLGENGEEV
The assay can be described thus: Antagonist activity at alpha1 adrenergic receptor in rat aorta assessed as inhibition of phenylephrine-induced aortic contraction.

Assay [4] deals with T1, Adrenergic receptor alpha-1. The assay can be described thus: Displacement of [3H]prazosin from alpha1 adrenergic receptor in rat brain cerebral cortex. In kind it is tissue-based.

On to `CN(C)CCCN1c2ccccc2CCc2ccccc21`, for which the TIME in assay [1] is 0.0363 h; in assay [2], 0.0283 h.

As for `COc1ccccc1N1CCN(CCCOc2c(C)cccc2C)CC1.Cl`, in the assay filed under Rattus norvegicus, the Ratio Ki is 142. Besides, in assay [3], the pA2 was determined as 8.807. In assay [4], this compound showed a Ki of 2.4 nM.

On to `COc1ccccc1N1CCN(CCCOc2cccc(C)c2C)CC1.Cl`, for which the Ratio Ki in the assay filed under Rattus norvegicus was 13.3. The pA2 in assay [3] is given as 8.534. The Ki in assay [4] is listed as 2.8 nM.

Values taken from ChEMBL document CHEMBL3860091, “Synthesis and activity of newly designed aroxyalkyl or aroxyethoxyethyl derivatives of piperazine on the cardiovascular and the central nervous systems” (Bioorg Med Chem Lett, 2016).
